The values below come from US20220041572A1, “CYCLOHEPTYL ACIDS AS LPA ANTAGONISTS” (BRISTOL-MYERS SQUIBB COMPANY, priority 2018, published 2022).

Structures are written as SMILES. pIC50: −log10 of the molar value.

One experiment concerns nerve-injured mice.
Experiment: not given
To be noted: pretreatment, Inoue et al 2004; cited from earlier work.
`C[C@@H](N)[C@H]1CC[C@H](C(=O)Nc2ccncc2)CC1` [Example Y-27632]: the allodynia and hyperalgesia result is reported as “completely abolished”.

For a further experiment, the system named is UUO mice.
Experiment: not given
To be noted: compared with LPA1 (−/−) mice; cited from earlier work.
On to `Cc1noc(-c2ccc(CSCCC(=O)O)cc2)c1NC(=O)OC(C)c1ccccc1Cl` (stereo not drawn) [Ki16425], for which the “renal fibrosis profile of treated UUO mice” value is “closely resembled the profile of LPA1 (−/−) mice”.

The next experiment has as its system pancreatic cancer cell lines.
Experiment: not given
To be noted: Yamada et al 2004; cited from earlier work.
On to `Cc1noc(-c2ccc(CSCCC(=O)O)cc2)c1NC(=O)OC(C)c1ccccc1Cl` (stereo not drawn) [Ki16425], for which the “in vitro migration in response to LPA and peritoneal fluid (ascites) from pancreatic cancer patients” value is recorded as “effectively blocked”.

A further experiment deals with CTGF.
Experiment: not given
The note with it: MCT cells, co-treatment with LPA; cited from earlier work.
With `Cc1noc(-c2ccc(CSCCC(=O)O)cc2)c1NC(=O)OC(C)c1ccccc1Cl` (stereo not drawn) [Ki16425], the “LPA induction of CTGF expression” value is reported as “almost completely suppressed”.

A further experiment concerns human foetal lung fibroblasts.
Experiment: not given
The note with it: Tager et al. Nature Medicine 2008; cited from earlier work.
Regarding `Cc1noc(-c2ccc(CSCCC(=O)O)cc2)c1NC(=O)OC(C)c1ccccc1Cl` (stereo not drawn) [Ki16425], the “chemotaxis of human foetal lung fibroblasts induced by BAL from IPF patients” value was “blocked”.

A further experiment deals with T1, human LPA1 (Homo sapiens, UniProt Q92633).
T1 construct: expressed in transfected cells; host or cells: Chinese hamster ovary (CHO) cells
T1 sequence (Q92633 whole entry): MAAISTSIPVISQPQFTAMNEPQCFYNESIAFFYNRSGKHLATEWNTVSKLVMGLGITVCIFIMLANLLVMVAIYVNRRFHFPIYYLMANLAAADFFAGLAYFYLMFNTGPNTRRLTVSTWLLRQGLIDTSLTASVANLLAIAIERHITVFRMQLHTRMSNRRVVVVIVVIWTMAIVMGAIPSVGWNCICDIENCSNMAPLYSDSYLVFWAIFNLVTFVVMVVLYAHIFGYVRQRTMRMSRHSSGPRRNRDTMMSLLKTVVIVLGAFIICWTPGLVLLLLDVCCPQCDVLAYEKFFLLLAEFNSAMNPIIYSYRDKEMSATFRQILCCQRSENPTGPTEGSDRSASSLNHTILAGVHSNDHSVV
In words: LPA1 functional antagonist assay (LPA-induced calcium flux). In kind it is cell-based. The note with it: CHO cells overexpressing human LPA1; inhibition of calcium flux induced by 10 nM LPA; read-out: hLPA1 IC50. Here is the method:
The effectiveness of compounds of the present invention as LPA1 inhibitors can be determined in an LPA1 functional antagonist assay as follows:
Chinese hamster ovary cells overexpressing human LPA1 were plated overnight (15,000 cells/well) in poly-D-lysine coated 384-well microplates (Greiner bio-one, Cat#781946) in DMEM/F12 medium (Gibco, Cat#11039). Following overnight culture, cells were loaded with calcium indicator dye (AAT Bioquest Inc, Cat#34601) for 30 minutes at 37° C. The cells were then equilibrated to room temperature for 30 minutes before the assay. Test compounds solubilized in DMSO were transferred to 384 well non-binding surface plates (Coming, Cat#3575) using the Labcyte Echo acoustic dispense and diluted with assay buffer [1X HBSS with calcium/magnesium (Gibco Cat#14025-092), 20 mM HEPES (Gibco Cat#15630-080) and 0.1% fatty acid free BSA (Sigma Cat#A9205)] to a final concentration of 0.5% DMSO. Diluted compounds were added to the cells by FDSS6000 (Hamamatsu) at final concentrations ranging from 0.08 nM to 5 μM. and were then incubated for 20 min at room temperature at which time LPA (Avanti Polar Lipids Cat#857130C) was added at final concentrations of 10 nM to stimulate the cells. The compound IC50 value was defined as the concentration of test compound which inhibited 50% of the calcium flux induced by LPA alone. IC50 values were determined by fitting data to a 4-parameter logistic equation (GraphPad Prism, San Diego Calif.).
On the technique in general: Calcium flux is commonly read through the fluorescence of an indicator in the cells.
As to `Cc1nc(-c2nnn(C)c2COC(=O)N(C)Cc2ccccc2)ccc1OC1CCCCC(C(=O)O)C1` (racemic) [Example 1, (±)-3-((6-(5-(((benzyl(methyl)carbamoyl)oxy)methyl)-1-methyl-1H-1,2,3-triazol-4-yl)-2-methylpyridin-3-yl)oxy)cycloheptane-1-carboxylic Acid], the negative logarithm of the IC50 (pIC50) is 7.80.
As for `CCc1cc(OCc2c(-c3ccc(OC4CCCCC(C(=O)O)C4)c(C)n3)nnn2C)ncn1` (racemic) [Example 15, (±)-3-((6-(5-(((6-ethylpyrimidin-4-yl)oxy)methyl)-1-methyl-1H-1,2,3-triazol-4-yl)-2-methylpyridin-3-yl)oxy)cycloheptane-1-carboxylic Acid], the negative-log IC50 (pIC50) was 7.49.
Still for that read-out and setting: as for `Cc1nc(-c2nnn(C)c2NC(=O)O[C@H](C)c2ccccc2)ccc1OC1CCCCC(C(=O)O)C1` (mixture of isomers) [Example 22, (±)-3-((2-methyl-6-(1-methyl-5-((((R)-1-phenylethoxy)carbonyl)amino)-1H-1,2,3-triazol-4-yl)pyridin-3-yl)oxy)cycloheptane-1-carboxylic Acid], the figure is 7.28.
As for `Cc1nc(-c2nnn(C)c2COC(=O)N(C)CC2CCC2)ccc1O[C@@H]1CCCC[C@@H](C(=O)O)C1` (single isomer, unassigned) [Example 2], the negative-log IC50 (pIC50) was 8.02.
On the same count and under the same terms, as for `Cc1nc(-c2nnn(C)c2COC(=O)N(C)CC2CCC2)ccc1O[C@@H]1CCCC[C@@H](C(=O)O)C1` (single isomer, unassigned) [Example 3], the figure is 6.97; as for `Cc1nc(-c2nnn(C)c2COC(=O)N(C)CC2CCC2)ccc1O[C@@H]1CCCC[C@H](C(=O)O)C1` (single isomer, unassigned) [Example 4], 7.72.
Still for that read-out and setting: the value for `Cc1nc(-c2nnn(C)c2COC(=O)N(C)CC2CCC2)ccc1O[C@@H]1CCCC[C@H](C(=O)O)C1` (single isomer, unassigned) [Example 5] was 6.53; that for `CCCN(C)C(=O)OCc1c(-c2ccc(OC3CCCCC(C(=O)O)C3)c(C)n2)nnn1C` (stereo not drawn) [Example 6] was 6.93.
Regarding `Cc1nc(-c2nnn(C)c2COC(=O)N(C)CC2CC2)ccc1OC1CCCCC(C(=O)O)C1` (stereo not drawn) [Example 7], the pIC50 was 7.96.
Still for that read-out and setting: the value for `Cc1nc(-c2nnn(C)c2COC(=O)N(C)C2CCCC2)ccc1OC1CCCCC(C(=O)O)C1` (stereo not drawn) [Example 8] was 7.96; that for `Cc1nc(-c2nnn(C)c2COC(=O)N(C)CC(C)C)ccc1OC1CCCCC(C(=O)O)C1` (stereo not drawn) [Example 9] was 7.80.
On the same count and under the same terms, the value for `Cc1nc(-c2nnn(C)c2COC(=O)N(C)CC(C)C)ccc1OC1CCCCC(C(=O)O)C1` (stereo not drawn) [Example 10] was 7.06; that for `Cc1nc(-c2nnn(C)c2COC(=O)N(C)CCC(C)C)ccc1OC1CCCCC(C(=O)O)C1` (stereo not drawn) [Example 11] was 7.44.
Take `Cc1nc(-c2nnn(C)c2COC(=O)N(C)CCC(C)C)ccc1OC1CCCCC(C(=O)O)C1` (stereo not drawn) [Example 12]: the pIC50 is 7.60.
In the case of `Cc1nc(-c2nnn(C)c2COC(=O)N(C)C2CCC2)ccc1OC1CCCCC(C(=O)O)C1` (stereo not drawn) [Example 13], the pIC50 was 7.29.
Still for that read-out and setting: as for `Cc1nc(-c2nnn(C)c2COC(=O)N(C)C2CCC2)ccc1OC1CCCCC(C(=O)O)C1` (stereo not drawn) [Example 14], the figure is 7.70; as for `Cc1nc(-c2nnn(C)c2COc2cc(C(C)(C)C)ncn2)ccc1OC1CCCCC(C(=O)O)C1` (stereo not drawn) [Example 16], 6.81.
Still for that read-out and setting: as for `Cc1nc(-c2nnn(C)c2COc2cc(C(C)(C)C)ncn2)ccc1OC1CCCCC(C(=O)O)C1` (stereo not drawn) [Example 17], the figure is 6.49; as for `Cc1nc(-c2nnn(C)c2COc2cc(C(C)C)ncn2)ccc1OC1CCCCC(C(=O)O)C1` (stereo not drawn) [Example 18], 6.84; as for `Cc1nc(-c2nnn(C)c2COc2cc(C(C)C)ncn2)ccc1OC1CCCCC(C(=O)O)C1` (stereo not drawn) [Example 19], 7.32.
Still for that read-out and setting: as for `COc1cc(OCc2c(-c3ccc(OC4CCCCC(C(=O)O)C4)c(C)n3)nnn2C)ncn1` (stereo not drawn) [Example 20], the figure is 7.17.
With `COc1cc(OCc2c(-c3ccc(OC4CCCCC(C(=O)O)C4)c(C)n3)nnn2C)ncn1` (stereo not drawn) [Example 21], the pIC50 was 7.59.
Same read-out and setting: the value for `Cc1nc(-c2nnn(C)c2NC(=O)OCC2CC2)ccc1OC1CCCCC(C(=O)O)C1` (stereo not drawn) [Example 23] was 6.90; that for `Cc1nc(-c2nnn(C)c2NC(=O)OCC(C)C)ccc1OC1CCCCC(C(=O)O)C1` (stereo not drawn) [Example 24] was 7.04.

For a further experiment, the system named is highly peritoneal metastatic pancreatic cancer cell line.
Experiment: not given
To be noted: Yamada et al 2004; cited from earlier work.
Turning to `Cc1noc(-c2ccc(CSCCC(=O)O)cc2)c1NC(=O)OC(C)c1ccccc1Cl` (stereo not drawn) [Ki16425], the “LPA-induced and ascites-induced invasion activity” value is reported as “blocked”.

As usually defined, the pIC50 is the negative decadic logarithm of the IC50, by convention in mol/L.
